Results on one molecule are retold here after US5726316A, “Pharmaceutical compositions for prevention and treatment of central nervous system disorders” (priority 1997, dated 1998).

Test [1] addresses T1, ganglionic-type neuronal nicotinic receptors (pheochromocytoma clonal line PC12) (Rattus norvegicus, UniProt P04757+P12392).
T1 construct: Intact cells on dishes were used for functional studies; endogenous in cells; host or cells: PC12 (rat pheochromocytoma)
Format: cell-based. The following applies: pc12 cells.
Procedure: (§1) Intact cells on dishes were used for functional studies.
(§2) Specific ion efflux was determined as the difference in isotope efflux between total and non-specific efflux samples. Dose-response curves were plotted and the concentration resulting in half maximal activation of specific ion flux through nicotinic receptors determined for human muscle and rat ganglionic preparations (EC50).

For test [2], the target named is T2, muscle-like nicotinic receptors (human clonal line TE671/RD) (Homo sapiens, UniProt P02708+P07510+Q07001).
T2 construct: Intact cells on dishes were used for functional studies; endogenous in cells; host or cells: TE671/RD (human embryonal rhabdomyosarcoma)
Format: cell-based. The following applies: te671/rd cells.
Procedure: Dose-response curves were plotted and the concentration resulting in half maximal activation of specific ion flux through nicotinic receptors determined for human muscle and rat ganglionic preparations (EC50).
as §1, §2

Test [3] has as its system synaptosomes from the striatal area of rat brain. The experiment in a line: Dopamine release from striatal synaptosomes. Format: biochemical, rat (Sprague-Dawley). As to conditions: relative to (S)-(-)-nicotine. How it is done:
Dopamine release was measured by preparing synaptosomes from the striatal area of rat brain obtained from Sprague-Dawley rats generally according to the procedures set forth by Nagy et al., J. Neurochem., Vol. 43, pp. 1114-1123 (1984). Striata from 4 rats were homogenized in 2 ml of 0.32M sucrose buffered with 5 mM HEPES (pH 7.5), using a glass-Teflon tissue grinder. The homogenate was diluted to 5 ml with additional homogenization solution and centrifuged at 1,000×g for 10 min. This procedure was repeated on the new pellet and the resulting supernatant was centrifuged at 12,000×g for 20 min. A 3 layer discontinuous Percoll gradient consisting of 16 percent, 10 percent and 7.5 percent Percoll in HEPES-buffered sucrose was made with the final pellet dispersed in the top layer. […] Using this method, 30 to 90 percent of the dopamine was taken up into the synaptosomes, as determined by scintillation counting following filtration through glass fiber filters soaked with 0.5 percent polyethyleneimine. […] After the addition of 0.2 ml of a solution containing various concentrations of ligand, the perfusate was collected into scintillation vials at 1 min. intervals and the dopamine release was quantified by scintillation counting. Peaks of radioactivity released above background were summed and the average basal release during that time was substracted from the total.

The target of test [4] is nicotinic receptors (L-[3H]nicotine binding, rat brain membrane preparations). Also on record: species or system rat (Sprague-Dawley). As to conditions: calculated from IC50 (Cheng et al.).
Procedure: Rats (Sprague-Dawley) were maintained on a 12 hour light/dark cycle and were allowed free access to water and food supplied by Wayne Lab Blox, Madison, Wis. Animals used in the present studies weighted 200 to 250 g. Brain membrane preparations were obtained from brain tissue of either males or females.
Rats were killed by decapitation following anesthesia with 70% CO2. Brains were removed and placed on an ice-cold platform. […] The resulting homogenate was centrifuged at 18,000×g for 20 min. and the resulting pellet was resuspended in 20 volumes of water. After 60 min. incubation at 4° C., a new pellet was collected by centrifugation at 18,000×g for 20 min. After resuspension in 10 volumes of buffer, a new final pellet was again collected by centrifugation at 18,000×g for 20 min. Prior to each centrifugation step, the suspension was incubated at 37° C. for 5 min. to promote hydrolysis of endogenous acetylcholine. The final pellet was overlayed with buffer and stoerd at -70° C. On the day of the assay, that pellet was thawed, resuspended in buffer and centrifuged at 18,000×g for 20 min. The pellet obtained was resuspended in buffer to a final concentration of approximately 5 mg protein/ml.
The binding of L-[^3 H]nicotine was measured using a 2 hr. incubation at 4° C. […] Nonspecific binding was determined by inclusion of 10 uM nonradioactive nicotine in the incubations.

By Ki is commonly meant a dissociation constant, usually derived from enzyme kinetics or from competition with a known ligand.

Structures are written as SMILES.

T2 sequence (P02708 21-457): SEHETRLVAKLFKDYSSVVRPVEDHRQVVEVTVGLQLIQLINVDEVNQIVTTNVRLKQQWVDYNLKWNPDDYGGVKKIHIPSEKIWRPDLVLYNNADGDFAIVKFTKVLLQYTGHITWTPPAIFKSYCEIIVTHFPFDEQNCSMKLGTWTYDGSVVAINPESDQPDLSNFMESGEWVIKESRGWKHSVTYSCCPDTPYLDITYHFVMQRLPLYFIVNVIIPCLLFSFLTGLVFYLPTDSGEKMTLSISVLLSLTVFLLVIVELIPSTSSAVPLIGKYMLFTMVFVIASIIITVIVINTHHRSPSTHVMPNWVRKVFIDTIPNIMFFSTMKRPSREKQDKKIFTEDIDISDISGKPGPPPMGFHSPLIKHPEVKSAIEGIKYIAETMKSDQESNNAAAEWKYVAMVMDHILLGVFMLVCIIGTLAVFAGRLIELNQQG
T2 sequence (Q07001 22-517): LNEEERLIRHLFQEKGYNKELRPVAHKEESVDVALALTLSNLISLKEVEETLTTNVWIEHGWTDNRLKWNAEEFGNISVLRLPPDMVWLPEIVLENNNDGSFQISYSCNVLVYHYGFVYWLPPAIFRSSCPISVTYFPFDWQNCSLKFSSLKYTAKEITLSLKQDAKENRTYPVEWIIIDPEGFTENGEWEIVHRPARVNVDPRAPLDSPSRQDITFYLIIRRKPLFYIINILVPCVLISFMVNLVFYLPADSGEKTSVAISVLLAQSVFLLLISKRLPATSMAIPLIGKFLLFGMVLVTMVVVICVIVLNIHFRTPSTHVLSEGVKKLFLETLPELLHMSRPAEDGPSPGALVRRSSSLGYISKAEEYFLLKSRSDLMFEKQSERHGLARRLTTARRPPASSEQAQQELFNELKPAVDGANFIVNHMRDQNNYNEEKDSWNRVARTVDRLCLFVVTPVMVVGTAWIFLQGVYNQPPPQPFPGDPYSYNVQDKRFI
T2 sequence (P07510 23-517): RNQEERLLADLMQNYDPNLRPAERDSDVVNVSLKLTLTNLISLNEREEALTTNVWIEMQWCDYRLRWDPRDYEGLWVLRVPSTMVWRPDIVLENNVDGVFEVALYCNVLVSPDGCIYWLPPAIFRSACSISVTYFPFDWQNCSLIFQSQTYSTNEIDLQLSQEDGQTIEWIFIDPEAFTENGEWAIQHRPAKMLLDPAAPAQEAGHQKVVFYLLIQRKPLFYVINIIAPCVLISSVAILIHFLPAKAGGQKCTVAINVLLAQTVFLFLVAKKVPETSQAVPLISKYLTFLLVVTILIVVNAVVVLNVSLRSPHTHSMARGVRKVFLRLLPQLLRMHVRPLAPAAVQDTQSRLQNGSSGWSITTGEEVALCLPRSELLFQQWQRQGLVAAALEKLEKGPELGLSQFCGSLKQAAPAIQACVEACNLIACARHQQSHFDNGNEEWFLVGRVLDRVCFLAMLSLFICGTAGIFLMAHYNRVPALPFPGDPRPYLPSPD
T1 sequence (P04757 26-499): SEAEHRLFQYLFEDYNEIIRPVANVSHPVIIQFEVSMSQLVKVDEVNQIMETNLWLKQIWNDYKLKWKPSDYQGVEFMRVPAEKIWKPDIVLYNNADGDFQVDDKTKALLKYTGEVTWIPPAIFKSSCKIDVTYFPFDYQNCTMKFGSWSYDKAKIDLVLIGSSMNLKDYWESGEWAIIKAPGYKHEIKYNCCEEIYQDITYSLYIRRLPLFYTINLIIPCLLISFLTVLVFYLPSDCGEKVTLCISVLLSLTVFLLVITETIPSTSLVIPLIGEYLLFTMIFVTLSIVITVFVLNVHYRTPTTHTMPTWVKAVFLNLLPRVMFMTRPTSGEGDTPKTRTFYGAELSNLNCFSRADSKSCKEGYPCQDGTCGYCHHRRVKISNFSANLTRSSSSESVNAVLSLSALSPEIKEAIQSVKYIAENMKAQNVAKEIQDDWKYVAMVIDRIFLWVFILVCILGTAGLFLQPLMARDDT
T1 sequence (P12392 21-495): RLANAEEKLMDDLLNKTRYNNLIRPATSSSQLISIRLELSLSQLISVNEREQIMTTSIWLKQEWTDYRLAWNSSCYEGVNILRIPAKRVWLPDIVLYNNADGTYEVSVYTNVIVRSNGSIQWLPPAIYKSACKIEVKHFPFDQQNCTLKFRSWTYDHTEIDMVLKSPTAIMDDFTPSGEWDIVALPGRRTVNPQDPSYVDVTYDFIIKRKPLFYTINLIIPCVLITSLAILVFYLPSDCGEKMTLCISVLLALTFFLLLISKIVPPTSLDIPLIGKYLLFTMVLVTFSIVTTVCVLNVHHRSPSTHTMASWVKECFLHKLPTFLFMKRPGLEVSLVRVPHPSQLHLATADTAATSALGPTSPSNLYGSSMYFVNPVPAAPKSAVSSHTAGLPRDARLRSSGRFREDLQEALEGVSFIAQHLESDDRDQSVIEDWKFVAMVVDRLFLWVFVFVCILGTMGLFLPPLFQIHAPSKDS

Take `CNCCCCc1cccnc1` [Sample No. 7, N-methyl-(3-pyridinyl)-buane-1-amine]: the “Ganglion Effect” value in test [1] was 31 % nicotine. In addition, the “Muscle Effect” value in test [2] amounted to 0 % nicotine. In addition, the “Dopamine Release Emax” value in test [3] is 72 % nicotine. Further, the Ki in test [4] was 0.91 µM.
